Laboratory results taken from patent publication US20210292736A1, “PROTEIN LABELLING” (The Provost, Fellows, Scholars and other Members of Board …, priority 2020, published 2021).

How the values were obtained:
[1] = test system: DUBs in HEK293T cell lysate; assay: PR-619 pre-incubation assay; format: biochemical, H. sapiens; details: lysate pre-incubated with increasing concentrations of PR-619, then probe 1 (1 μg) 90 min, UV 2 min
Experimental: (§1) (A) HEK 293T cell lysate (50 μg) was pre-incubated for 90 min with increasing concentrations of PR-619 before being labelled with the probe 1 (1 μg). (B) HEK 293T cell lysate (50 μg) was pre-incubated with probe 1 (1 μg) for 90 min before PR-619 was added at increasing concentrations. (C) HEK 293T cell lysate (50 μg) was incubated with Ub75CH2CH2Br and PR 619 (100 μM) was added to one sample. All samples were exposed to UV light (365 nm) for 2 min.
(§2) It was next set out to test the modulation of labelling using the known pan DUB inhibitor, PR-619 (X. Tian, N. S. Isamiddinova, R. J. Peroutka, S. J. Goldenberg, M. R. Mattern, B. Nicholson and C. Leach, Assay Drug Dev Technol, 2011, 9, 165-173). PR-619 was incubated with cell lysate for 30 min prior to the addition of probe 1 and the labelling was then carried out under optimised conditions with a 90 min pre-incubation time. […] This implies specificity of probe 1 towards DUBs. […] PR-619 was titrated into the mixture at increasing concentrations and incubated for a further 30 min before the addition of initiators and exposure to UV light (FIG. 4B). A parallel experiment was set up with the Ub75CH2CH2Br probe for comparison (FIG. 4C). […] (FIG. 4C, lanes 2 and 3). To check the integrity of the probe and cell lysate under these conditions a silver stain of the samples was also performed (FIG. 9). […]

[2] = test system: DUBs in HEK293T cell lysate; assay: PR-619 equilibrium disruption assay; format: biochemical, H. sapiens; details: probe 1 pre-incubated with lysate 90 min, PR-619 titrated 0-100 μM, further 30 min, UV 2 min
Experimental: as §1, §2

[3] = test system: DUBs in HEK 293T cell lysate; assay: Thiol-ene labelling in HEK293T cell lysate (anti-HA western blot); format: biochemical, H. sapiens; details: NEM 10 mM (FIG. 3A lane 8 vs 4)
Experimental: Controls included using NEM (10 mM), the Ub75CH2CH2Br probe (1 μg) and a labelling excluding initiators. (B) HEK 293T cell lysate (50 μg) was pre-incubated for varying periods of time with probe 1 (1 μg) before exposure to UV light (365 nm) for 2 min.
After confirming reactivity with a recombinant DUB, probe 1 was tested in HEK293T cell lysate using conditions analogous to those described for the recombinant enzyme labelling (FIG. 3). […] Exposure time to UV light was optimised, with conditions tested from […] (FIG. 3A, lanes 2-7). No labelling is observed at the 0 minute time point (FIG. 3A, lane 2). There is no discernible difference between the 1 minute and 10 minute timepoints (FIG. 3A, lanes 3 and 4). […] Two further control experiments were performed to validate the need for free thiols and to compare to an existing probe. […] Covalent bond formation therefore requires free cysteine residues. A labelling reaction with the known HA-Ub75CH2CH2Br probe was subjected to the same conditions as the thiol-ene labelling to confirm there was no degradation of the lysate under these conditions (FIG. 3A, lanes 9 and 10).
It was next examined how the pre-incubation period affected the labelling pattern (FIG. 3B, lanes 1-5). It was reasoned that prior to activation, a binding equilibrium must be established between the probe and target enzymes to yield the rapid labelling observed. […]

UCHL1 = biological target: T1, UCHL1 (Homo sapiens, UniProt P09936); assay: Eosin Y visible light-mediated labelling of recombinant UCHL1; format: biochemical; details: UCHL1 2 μg, probe 1 3 μg; 10 W white light from 50 cm vs UV 365 nm
T1 sequence (P09936 1-223): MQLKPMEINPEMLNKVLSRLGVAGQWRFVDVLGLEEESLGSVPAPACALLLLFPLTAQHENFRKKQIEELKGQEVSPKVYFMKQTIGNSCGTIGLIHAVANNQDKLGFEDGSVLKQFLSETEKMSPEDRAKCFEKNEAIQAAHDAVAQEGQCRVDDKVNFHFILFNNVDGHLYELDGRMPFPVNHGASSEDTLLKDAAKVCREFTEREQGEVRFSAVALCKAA
Experimental: (§3) FIG. 18—comparative analysis of labelling using Eosin Y as the initiator relative to DPAP and MAP for recombinant enzymes OTUB1 (2 μg) and UCHL1 (2 μg), lanes 2-4 and 5-7, with probe 1 (3 μg) visualised by anti-HA western blot. Samples were preincubated for 90 min at 37° C. Lanes 3 and 6 were degassed for 2 min using N2 before the addition of DPAP and MAP or Eosin Y to the indicated samples. A further incubation was carried out for 10 min at 37° C. while lanes 3 and 6 were exposed to UV light (365 nm) and lanes 4, and 7 were exposed to a 10 W white light lamp from 50 cm.
Once optimised, a comparative labelling was carried out between these optimised Eosin Y labelling conditions versus the conditions optimised for DPAP and MAP labelling (FIG. 18). At this point to check the generality of the method, a further DUB, UCHL1 was tested alongside OTUB1.
Probe 1 ([…]) was incubated with OTUB1 (0.2 μL, 13.78 μg/μL, in storage buffer) or UCHL1 (3.3 μL, 0.9 μg/μL, in storage buffer). The final volume of the labelling was adjusted to 30 μL with homogenisation buffer containing TCEP (1 mM). A stock solution of Eosin Y (0.29 mM in DMSO—homogenisation buffer, 4:1) was prepared fresh before use and protected from light. The reaction was preincubated for 90 min at 37° C. with gentle shaking before the addition of Eosin Y (0.5 μL of stock for recombinant enzyme labelling, final conc.=5 μM). […]

recombinant DUB OTUB1 = recombinant DUB OTUB1 (Homo sapiens, UniProt Q96FW1); assay: Eosin Y visible light-mediated labelling of recombinant OTUB1; format: biochemical; set-up: His; details: OTUB1 2 μg, probe 1 3 μg; 10 W white light from 50 cm vs UV 365 nm
recombinant DUB OTUB1, sequence (Q96FW1 whole entry): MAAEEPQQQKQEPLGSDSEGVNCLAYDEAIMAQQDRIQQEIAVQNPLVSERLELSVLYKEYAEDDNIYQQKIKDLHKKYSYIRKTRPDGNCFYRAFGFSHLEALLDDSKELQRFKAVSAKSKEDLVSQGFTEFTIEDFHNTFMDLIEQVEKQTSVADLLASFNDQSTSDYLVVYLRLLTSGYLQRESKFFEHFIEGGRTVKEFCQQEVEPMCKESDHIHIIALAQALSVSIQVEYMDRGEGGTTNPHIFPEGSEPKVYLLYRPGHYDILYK
Experimental: FIG. 13—labelling of OTUB1 (2 μg) with probe 1 (3 μg) visualised by anti-HA western blot. Samples were preincubated for 90 min at 37° C. before the addition of Eosin Y. Samples were incubated for a further 10 min at 37° C. in the dark (lane 3) in ambient light (lane 4) or exposed to a 10 W white light lamp from 10 cm (lane 5).
as §3
Firstly, the reactivity of the probe with the recombinant DUB OTUB1 was assessed using Eosin Y as the sole photoinitiator (FIG. 13). Triethanolamine, or similar coinitiators, could be used in combination with Eosin Y. The reaction was initiated using ambient light or a 10 W white light bulb. As a control, an equivalent sample was kept in darkness for the duration of the experiment. […]

With `N#CSc1cc(SC#N)c(N)nc1N` [PR-619] the “effect on probe 1 labelling intensity, inhibitor before probe” value [1] was “concentration-dependent reduction in labelling intensity” and the “effect on probe 1 labelling, inhibitor added after binding equilibrium” value [2] was “abrogates the labelling in a concentration dependent manner”.

With `CCN1C(=O)C=CC1=O` [NEM, N-ethylmaleimide, reference compound] the “effect on probe 1 labelling” value [3] was “inhibited labelling”.

For `O=C([O-])c1ccccc1-c1c2cc(Br)c(=O)c(Br)c-2oc2c(Br)c([O-])c(Br)cc12.[Na+].[Na+]` [Eosin Y, reference compound], the “probe capture with Eosin Y relative to DPAP and MAP” value (UCHL1) was “probe capture was comparable” and the “probe capture with Eosin Y relative to DPAP and MAP” value (recombinant DUB OTUB1) was “probe capture was comparable”.
